This is an account of results in patent US9512090B2, “Tetrazolinone compound and use thereof” (Sumitomo Chemical Company, Limited, priority 2013, dated 2016).

Data set [1] has as its system cucumber powdery mildew fungus (Sphaerotheca fuliginea). Briefly: Test Example 6 and Comparative Test Example: cucumber powdery mildew control by foliar spray. It is filed as in vivo. As to conditions: 500 ppm spray on cucumber (SAGAMI HANJIRO); 8 days after inoculation.
The test system of data set [2] is common house mosquito (Culex pipiens pallens). The data set is described as follows: Test Example 12: common house mosquito larvae mortality in treated water. It is filed as in vivo. As to conditions: active ingredient 3.5 ppm in water; last instar larvae; after 8 days. The protocol:
A water dilution containing a surfactant prepared by adjusting so as to contain a predetermined concentration (500 ppm) of any one compound of the present compounds 20, 29, and 79 was used as a test chemical solution.
The above test chemical solution (0.7 mL) was added to 100 mL of deionized water to adjust the concentration of an active ingredient to 3.5 ppm. Twenty (20) heads of last instar larvae of common house mosquito (Culex pipiens pallens) were released in the solution and the number of dead insects was counted after 8 days.
Mortality was determined by the following equation. Mortality (%)=(number of dead insects/number of test insects)×100

As to `Cc1ccc(OCc2ccccc2-n2nnn(C)c2=O)cc1` [1-{2-(4-methylphenoxymethyl)phenyl}-4-methyl-1,4-dihydrotetrazol-5-one], in data set [1], the “area of lesion spots on the treated plant relative to that on an untreated plant” value is given as at least 70%.

For the compound `COc1ccccc1-c1ccc(OCc2c(OC)cccc2-n2nnn(C)c2=O)c(C)c1` [compound 20], in data set [2], the mortality (usually the percentage killed) came out at 100%.

Turning to `Cc1cc(OCc2c(C)cccc2-n2nnn(C)c2=O)ccc1-c1ccccc1` [compound 29], in data set [2], the mortality was 100%.

In data set [2], `CCN(c1ccccc1)c1ccc(OCc2c(C)cccc2-n2nnn(C)c2=O)c(C)c1` [compound 79] had a mortality of 100%.
